Results as given in PubChem BioAssay AID588477 (NMMLSC, 2011).
The source made the active and inactive calls.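 The calls were made as follows: active = valid curve fit with half-effect dose at most 10 µM and total binding change across doses of 30 points or more; inactive = the rest.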

Legend:
[1] = small GTPase nucleotide-binding inhibition, multiplex panel – biochemical, round 1 SAR, Mg buffer, multiplex flow cytometry, selectivity assay for Cdc42 probe extension project, SAR follow-up (AID 588477); details: GST-GTPase beads, Bodipy-GTP binding, Cdc42 constitutively active
Cdc42 wt = experiment: as above; details: GST-GTPase beads, Bodipy-GTP binding

Row | EC50 [1] | EC50 (Cdc42 wt) | percent response (remaining binding) (Cdc42 wt; at 100 µM (top of the series)) | percent response (remaining binding) ([1]; at 100 µM (top of the series)) | Structure (SMILES)
1 | 3.69 µM | 2.41 µM |  |  | COc1ccc(C2CC(c3ccccc3)=NN2c2ccc(S(N)(=O)=O)cc2)cc1 (stereo unspecified)
2 | 2.68 µM |  | inactive |  | O=C(C#Cc1ccccc1)c1cccc([N+](=O)[O-])c1
3 |  | 7.26 µM |  | inactive | NS(=O)(=O)c1ccc(N2N=C(c3ccccc3)CC2c2ccccc2)cc1 (stereo unspecified)
